Patent US9079863B2, “Crystalline forms for 5-amino-2,3-dihydrophthalazine-1,4-dione sodium salt, pharmaceutical preparations containing the same and method for the production of said forms” (METRIOPHARM AG, priority 2010, dated 2015)
Where a name gives a salt, the structure may show the parent alone. Read-outs that look alike come from different tables or passages of the source.

Legend:
[1] = for Disintegration temperature: 30-500° C. in synthetic air (4 N2: 1 O2); for Disintegration temperature / Endothermous solid phase transformation: sodium salt; for Endothermous solid phase transformation: 30-300° C. under helium
Method: (Table 5). The solid phase transformation of the dihydrate according to U.S. Pat. No. 6,483,326 B1 was measured by means of the simultaneous thermogravimetry-differential thermal analysis with a Linseis L81-077 coupled with mass spectroscopy measurement with a Netzsch STA 449 C thermobalance, with MS and FTIR coupling at 30-300° C. under helium. The disintegration temperatures of forms I-II were determined with the same device at 30-500° C. in synthetic air (4 N2: 1 O2). The data were analyzed with the factory-set software Proteus.

[2] = physchem; details: in water at room temperature, saturated solution
Method: Further, the solubility of the crystalline forms in a saturated solution was determined.

[3] = test system: isolated mouse macrophages
Method: For this purpose, the macrophages were first treated with form I (20 or 200 μg/mL). After 1 hour the treated macrophages were stimulated with LPS (10, 100 or 1,000 ng/mL). The supernatants were collected 24 h later, and the concentration of TNF-alpha and IL-6 was measured. Not stimulated macrophages, not stimulated macrophages treated with 200 μg/mL form I and LPS-stimulated macrophages (10, 100 or 1,000 ng/mL LPS) were used as controls.

[4] = not infected mice; for Weight development/increase MW: over two days
Method: (§1) In a mouse model of the Gram-positive sepsis (infection with S. pyogenes) the therapeutic usability of the crystal forms I and II of the 5-amino-2,3-dihydrophthalazine-1,4-dione sodium salt was tested. The administration of active ingredient was made parenterally 6 hours after the infection occurred. A second administration of active ingredient was made 24 hours after the first application. The test was completed 48 hours after the infection. For both forms (substance groups) three different doses were used. The mice obtained 2, 20 or 200 μg each of form I or form II per animal and application.
(§2) The individual treatment groups comprised 5 animals each, and for the not infected controls two repetitions and for the infected controls and that groups that contained form II four repetitions were made, so that in total 180 animals were in the test.
It is known that the toxicity of substances in an animal test with growing-up mice or rate can influence the weight development.

[5] = test system: S. pyogenes; details: for Weight development/increase Total MW / Weight development/increase Day 1 MW: infected mice, sodium salt; for Weight development/increase Total MW: complete test time 48 h, survivors
Method: as §1, §2
In the sepsis model described in Example 3, the influence of crystal forms I and II of the 5-amino-2,3-dihydrophthalazine-1,4-dione sodium salt on the weight development of mice infected with S. pyogenes was tested. The development of the body weight during an acute infection may supply important predictive information.

[6] = test system: S. pyogenes; details: 48 hours after the infection
Method: as §1, §2
In the sepsis model described in Example 3, the influence the crystal forms II and I of the 5-amino-2,3-dihydrophthalazine-1,4-dione sodium, salt on the probability of survival of the mice infected with S. pyogenes was tested.

[7] = test system: S. pyogenes; details: for Germ load (CFU) Blood MW / Germ load (CFU) Liver MW: 48 hours after the infection, sodium salt
Method: as §1, §2
In the sepsis model described in Example 3, the influence of crystal forms II and I of the 5-amino-2,3-dihydrophthalazine-1,4-dione sodium salt on the germ load of the mice infected with S. pyogenes in blood and liver was tested. The test was completed 48 hours after the infection, and the germ load (CFU) existing at this time in blood and liver was determined (see Table).

[8] = healthy mice
Method: as §1
Blood taking occurred after 48 hours at the end of the second application day.

[9] = healthy mice, end of the second application day
Description: When administering form I and form II to healthy mice, it was investigated, whether and which influence the application has on certain liver enzymes, in particular the transaminases GOT (AST) and GPT (ALT). Blood taking occurred at the end of the second application day.

[10] = 0.25 g in 10 mL H2O VE, stirring 500 rpm, 25° C., first minutes after addition; sodium salt
Method: The complete dissolution of 0.25 g form I or form II, respectively, in 10 mL H2O VE was achieved under stirring (500 rpm) at 25° C.

[11] = 200 μg/mL, not stimulated macrophages (no LPS)
[12] = dose 20 μg, LPS 10 ng/mL, supernatant 24 h
[13] = dose 20 μg, LPS 100 ng/mL, supernatant 24 h
[14] = dose 20 μg, LPS 1 mg/mL, supernatant 24 h
[15] = dose 200 μg, LPS 10 ng/mL, supernatant 24 h
[16] = dose 200 μg, LPS 100 ng/mL, supernatant 24 h
[17] = dose 200 μg, LPS 1 mg/mL, supernatant 24 h

Nc1cccc2c(=O)[nH][nH]c(=O)c12 [Form I, 5-amino-2,3-dihydrophthalazine-1,4-dione sodium salt]
Disintegration temperature ([1]; listed as form I): 335 °C | Disintegration temperature [1]: 335 °C ± 10 °C | Time for which the crystalline form is stable ([1]; room temperature (25° C.) and 40° C.): at least two | Solubility ([2]; water, thermodynamic from solid, Solubility): 227 mg/mL | Immunodepressive effect ([3]; 100 ng/5 mL LPS, 200 μg/mL): most distinct | Change of TNF-alpha values ([3]; 1 μg/mL LPS with 200 μg/mL): significant reduction | Effect on not stimulated macrophages by TNF-alpha values ([3]; 200 μg/mL, not stimulated): immunostimulating effect | IL-6 MW [3, 11]: 0.24 ng/mL | TNF-alpha MW [3, 11]: 7.98 ng/mL | Effect in the combination groups with LPS ([3]; all LPS groups): dose-dependent, immunodepressive effect | IL-6 MW [3, 12]: 6.05 ng/mL | TNF-alpha MW [3, 12]: 13.27 ng/mL | IL-6 MW [3, 13]: 19.67 ng/mL | TNF-alpha MW [3, 13]: 27.17 ng/mL | IL-6 MW [3, 14]: 22.67 ng/mL | TNF-alpha MW [3, 14]: 47.91 ng/mL | IL-6 MW [3, 15]: 7.19 ng/mL | TNF-alpha MW [3, 15]: 20.74 ng/mL | IL-6 MW [3, 16]: 10.88 ng/mL | TNF-alpha MW [3, 16]: 16.47 ng/mL | IL-6 MW [3, 17]: 15.95 ng/mL | TNF-alpha MW [3, 17]: 32.53 ng/mL | Toxicity judged from weight development [4]: do not have any toxicity or at most a very small one | Weight development/increase MW ([4]; 2 μg per animal and application, parenteral, sodium salt): -0.49 g | Weight development/increase MW ([4]; 20 μg per animal and application, parenteral, sodium salt): 1.48 g | Weight development/increase MW ([4]; 200 μg per animal and application, parenteral, sodium salt): 0.79 g | Weight development/increase MW ([4]; all doses (total)): 0.59 g | Weight loss compared to control groups ([5]; first 24 hours after the infection): lower weight losses | Weight development/increase Total MW ([5]; 2 μg): -2.41 g | Weight development/increase Day 1 MW ([5]; 2 μg): -0.64 g | Weight development/increase Total MW ([5]; 20 μg): -1.46 g | Weight development/increase Day 1 MW ([5]; 20 μg): -0.09 g | Weight development/increase Total MW ([5]; 200 μg): -1.69 g | Weight development/increase Day 1 MW ([5]; 200 μg): -0.03 g | Weight development/increase Total MW ([5]; all doses (total)): -1.85 g | Weight development/increase Day 1 MW ([5]; all doses (total)): -0.25 g | Share of surviving mice ([6]; 2 μg, sodium salt): 80% | Share of surviving mice ([6]; 20 μg): 80% | Share of surviving mice ([6]; 200 μg, sodium salt): 80% | Survival compared to the controls [6]: increase of the share of surviving animals | Share of surviving mice ([6]; all doses (total)): 80% | Germ load (CFU) Blood MW ([7]; 2 μg): 7.00 log/mL | Germ load (CFU) Liver MW ([7]; 2 μg): 6.56 log/g | Germ load (CFU) Blood MW ([7]; 20 μg): 6.33 log/mL | Germ load (CFU) Liver MW ([7]; 20 μg): 6.57 log/g | Germ load (CFU) Blood MW ([7]; 200 μg): 5.77 log/mL | Germ load (CFU) Liver MW ([7]; 200 μg): 6.09 log/g | Germ load (CFU) Blood MW ([7]; all doses (total)): 6.37 log/mL | Germ load (CFU) Liver MW ([7]; all doses (total)): 6.41 log/g | Germ count in the blood compared to the controls ([7]; highest dose): tendentious germ count reduction | TNF-alpha MW ([8]; 2 μg, blood after 48 hours, sodium salt): 128.8 pg/mL | TNF-alpha versus control groups and form II groups ([8]; 20 μg dose, p<0.001): significantly different | TNF-alpha MW ([8]; 20 μg, blood after 48 hours, sodium salt): 341.8 pg/mL | TNF-alpha MW ([8]; 200 μg, blood after 48 hours, sodium salt): 154.1 pg/mL | TNF-alpha MW ([8]; all doses (total), blood after 48 hours, sodium salt): 208.2 pg/mL | IL-6 increase ([8]; blood after 48 hours): neither in the substance groups nor in the control groups increases could be found | TNF-alpha increase ([8]; compared to the other groups, sodium salt): distinct increases | Transaminases GOT (AST) and GPT (ALT) [9]: Distinct differences between the groups could not be found | Initial dissolution rate [10]: only retarded reaches its complete equilibrium concentration

Nc1cccc2c(=O)[nH][nH]c(=O)c12 [Dihydrate, 5-amino-2,3-dihydrophthalazine-1,4-dione sodium salt]
Endothermous solid phase transformation ([1]; listed as dihydrate): 85 °C | Endothermous solid phase transformation [1]: 85 °C ± 10 °C | Solubility ([2]; sodium salt): 168 mg/mL
